Measurements from the NIST ThermoML archive (doi:10.1021/je020113t).
Numbers after ± are expanded uncertainties.

Conditions: visual observation

| Compound | Normal melting temperature (Crystal) [°C] | Normal melting temperature (Crystal 1) [°C] |
| --- | --- | --- |
| c1c[nH]cn1 [1H-imidazole] | 89.10 ± 0.5 | – |
| Cc1nccn1C [1,2-dimethyl-1H-imidazole] | 38.4 ± 0.5 | – |
| Cc1ncc[nH]1 [2-methylimidazole] | – | 146 ± 0.5 |
